Values belong to the compound of their own block, whether it stands above or below them. The source made the active and inactive calls. The rule behind the calls is not given here.
Tests used:
[1] = tested on: RAW264.7; assay: Inhibition of NF-kappaB activation in LPS-stimulated mouse RAW264.7 cells assessed as DNA binding using 32P-labeled oligonucleotide with the high affinity site 5'-AGTTGAGGGGACTTTCCCAGGC-3' at 3 ug/mL after 30 mins by EMSA; type: cell-based
[2] = tested on: RAW264.7; assay: Inhibition of LPS-induced nitric oxide production in mouse RAW264.7 cells preincubated for 1 hr prior LPS stimulation measured after 24 hrs by Griess reaction; type: functional, cell-based
[3] = tested on: RAW264.7; assay: Cytotoxicity against mouse RAW264.7 cells at 10 ug/mL after 24 hrs by MTT assay; type: cell-based; settings: raw264.7, 24 h
[4] = Stability of the compound under neutral conditions; type: physicochemical
[5] = Stability of the compound in DMSO for 4 weeks; type: physicochemical; settings: 672 h
[6] = tested on: RAW264.7; assay: Inhibition of LPS-induced nitric oxide production in mouse RAW264.7 cells at 100 ug/mL preincubated for 1 hr prior LPS stimulation measured after 24 hrs by Griess reaction relative to (-)-DHMEQ; type: functional, cell-based
[7] = tested on: Transcription factor p65 (Homo sapiens), Q04206 [C38S]; assay: Binding affinity to recombinant NF-kappaB transcription factor p65 subunit C38S mutant at 4 equiv mol concentration after 1 hr by MALDI-TOF MS analysis
Sequence of Transcription factor p65 (Homo sapiens), Q04206 [C38S] (Q04206 whole entry C38S): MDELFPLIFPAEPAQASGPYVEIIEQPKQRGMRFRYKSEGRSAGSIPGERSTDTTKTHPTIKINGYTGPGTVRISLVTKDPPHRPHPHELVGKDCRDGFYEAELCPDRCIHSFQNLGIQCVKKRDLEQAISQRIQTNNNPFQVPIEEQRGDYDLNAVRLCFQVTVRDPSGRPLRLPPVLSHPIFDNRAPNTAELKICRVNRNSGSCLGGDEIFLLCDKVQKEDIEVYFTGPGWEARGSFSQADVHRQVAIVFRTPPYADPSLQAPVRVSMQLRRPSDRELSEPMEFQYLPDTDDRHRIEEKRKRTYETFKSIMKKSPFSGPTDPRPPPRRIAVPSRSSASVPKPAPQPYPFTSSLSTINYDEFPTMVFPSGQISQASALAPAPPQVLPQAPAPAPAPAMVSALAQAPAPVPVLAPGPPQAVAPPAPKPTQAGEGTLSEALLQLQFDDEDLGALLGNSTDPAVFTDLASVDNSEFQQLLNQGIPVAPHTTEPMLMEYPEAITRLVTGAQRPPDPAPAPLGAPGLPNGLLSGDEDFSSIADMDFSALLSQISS

[8] = molecular target: Transcription factor p65 (Homo sapiens) (UniProt Q04206); assay: Binding affinity to recombinant NF-kappaB transcription factor p65 subunit at 4 equiv mol concentration after 1 hr by MALDI-TOF MS analysis
Sequence of Transcription factor p65 (Homo sapiens) (Q04206 whole entry): as the sequence (Q04206 whole entry C38S) above, with S38C counted along it

Compound: C=CCOc1ccccc1C(=O)NC1=CC(=O)[C@H]2O[C@H]2[C@H]1O (racemic)
- inhibition [1]: Active
- inhibition [2]: Dose-dependent effect
- Activity [3]: Non-toxic

- Stability [4]: Stable
Compound: O=C(NC1=CC(=O)[C@H]2O[C@H]2[C@H]1O)c1ccccc1O [DEHYDROXYMETHYLEPOXYQUINOMICIN]

- Stability [5]: Stable
- Activity [7]: inactive
- Activity [8]: Active
Compound: O=C(/C=C/COc1ccccc1C(=O)NC1=CC(=O)[C@H]2O[C@H]2[C@H]1O)NCCOCCOCCNC(=O)CCCC[C@@H]1SC[C@@H]2NC(=O)N[C@@H]21 (mixture of isomers)
- inhibition [6]: inactive

Reference: ChEMBL document CHEMBL1914288, “Design and synthesis of biotinylated DHMEQ for direct identification of its target NF-κB components” (Bioorg Med Chem Lett, 2011)
